Laboratory results as given in ChEMBL document CHEMBL2434905, “2-Amino-6-chloro-3,4-dihydroquinazoline: A novel 5-HT3 receptor antagonist with antidepressant character” (Bioorg Med Chem Lett, 2013).
The source made the active and inactive calls. No cut-off for these calls is given here.

What was measured:
[1] = tested on: Mus musculus; assay: Antidepressant activity in ICR mouse assessed as immobility time at 20 mg/kg, ip by tail suspension test; format: functional, organism-based; set-up: dose 20 mg/kg
[2] = target: T1, 5-hydroxytryptamine receptor 3A (Homo sapiens, UniProt P46098); assay: Displacement of [3H]GR65630 from 5-HT3 receptor (unknown origin) expressed in mouse/rat NG108-15 cells after 30 mins by liquid scintillation counting analysis; format: cell-based
T1 sequence (P46098 whole entry): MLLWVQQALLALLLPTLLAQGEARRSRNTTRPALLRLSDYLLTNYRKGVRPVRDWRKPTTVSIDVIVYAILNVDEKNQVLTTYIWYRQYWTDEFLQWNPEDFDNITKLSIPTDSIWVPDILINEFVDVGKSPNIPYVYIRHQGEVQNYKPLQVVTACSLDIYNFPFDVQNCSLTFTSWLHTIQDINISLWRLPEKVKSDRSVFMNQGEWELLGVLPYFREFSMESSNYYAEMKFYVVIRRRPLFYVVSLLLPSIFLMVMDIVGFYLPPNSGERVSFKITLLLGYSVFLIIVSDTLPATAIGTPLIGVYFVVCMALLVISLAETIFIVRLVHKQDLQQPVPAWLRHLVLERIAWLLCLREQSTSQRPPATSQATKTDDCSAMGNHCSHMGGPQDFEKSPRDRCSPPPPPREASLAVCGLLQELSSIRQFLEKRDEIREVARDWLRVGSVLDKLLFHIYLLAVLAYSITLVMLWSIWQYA

CNCCC(Oc1ccc(C(F)(F)F)cc1)c1ccccc1 (configuration not stated)
Activity [1]: Active

NC(N)=Nc1cccc(Cl)c1
Ki [2]: 32 nM
